# Results: ChEMBL document CHEMBL1201862, “PubChem BioAssay data set” (2004)
#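 Exposure lasted 48 hours, with cells grown in 96-well plates and compounds tested at five concentrations. GI50: concentration for 50% inhibition of growth.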 Activity calls are given as the source filed them. No stated cut-off is given here; in the data, active = GI50 up to about 1.1 µM and inactive = higher.
# Tests used:
# Experiment in all cases: inhibition of tumour cell growth, NCI panel, 48 h
# RPMI-8226 = system: RPMI-8226
# 786-0 = system: 786-0
# M14 = system: M14
# SNB-19 = system: SNB-19
# SNB-78 = system: SNB-78
# COLO 205 = system: COLO 205
# SN12C = system: SN12C
# OVCAR-8 = system: OVCAR-8
# HCT-15 = system: HCT-15
# U-251 = system: U-251
# OVCAR-4 = system: OVCAR-4
# ACHN = system: ACHN
# Malme-3M = system: Malme-3M
# CCRF-CEM = system: CCRF-CEM
# LOX IMVI = system: LOX IMVI
# MDA-N = system: MDA-N
# MDA-MB-435 = system: MDA-MB-435
# MDA-MB-231 = system: MDA-MB-231
# DU-145 = system: DU-145
# SR = system: SR
SMILES,GI50 (RPMI-8226),GI50 (786-0),GI50 (M14),GI50 (SNB-19),GI50 (SNB-78),GI50 (COLO 205),GI50 (SN12C),GI50 (OVCAR-8),GI50 (HCT-15) [µM],GI50 (U-251),GI50 (OVCAR-4),GI50 (ACHN),GI50 (Malme-3M),GI50 (CCRF-CEM),GI50 (LOX IMVI),GI50 (MDA-N),GI50 (MDA-MB-435),GI50 (MDA-MB-231),GI50 (DU-145),GI50 (SR)
O=C1CCC(=O)N1CNc1cccc(NCN2C(=O)CCC2=O)c1,17.3 µM (inactive),> 100 µM (inactive),> 100 µM (inactive),> 100 µM (inactive),> 100 µM (inactive),> 100 µM (inactive),> 100 µM (inactive),> 100 µM (inactive),61,> 100 µM (inactive),> 100 µM (inactive),71.4 µM (inactive),> 100 µM (inactive),29.6 µM (inactive),,,,,,
COc1ccc2c(c1)[n+]([O-])c(C(=O)C/C(=N/NC(=O)C[N+](C)(C)C)C(=O)Nc1cccc(C)c1C)c(C)[n+]2[O-],> 100 µM (inactive),> 100 µM (inactive),> 100 µM (inactive),> 100 µM (inactive),> 100 µM (inactive),> 100 µM (inactive),> 100 µM (inactive),> 100 µM (inactive),> 100,> 100 µM (inactive),> 100 µM (inactive),> 100 µM (inactive),> 100 µM (inactive),,,,,,,
Cc1nc2ccccc2c(=O)n1-c1ccccc1F,,> 100 µM (inactive),> 100 µM (inactive),> 100 µM (inactive),> 100 µM (inactive),> 100 µM (inactive),> 100 µM (inactive),> 100 µM (inactive),> 100,> 100 µM (inactive),> 100 µM (inactive),> 100 µM (inactive),> 100 µM (inactive),> 100 µM (inactive),> 100 µM (inactive),,,,,
CC(=N\N)/C(C)=N/N=C(C)/C(C)=N/N,> 100 µM (inactive),> 100 µM (inactive),> 100 µM (inactive),> 100 µM (inactive),,> 100 µM (inactive),> 100 µM (inactive),> 100 µM (inactive),> 100,> 100 µM (inactive),> 100 µM (inactive),> 100 µM (inactive),> 100 µM (inactive),> 100 µM (inactive),> 100 µM (inactive),> 100 µM (inactive),> 100 µM (inactive),> 100 µM (inactive),> 100 µM (inactive),> 100 µM (inactive)
NCCc1nc(-c2nc(C(=O)O)cs2)cs1,> 100 µM (inactive),> 100 µM (inactive),> 100 µM (inactive),> 100 µM (inactive),,> 100 µM (inactive),> 100 µM (inactive),> 100 µM (inactive),> 100,> 100 µM (inactive),> 100 µM (inactive),> 100 µM (inactive),> 100 µM (inactive),> 100 µM (inactive),> 100 µM (inactive),> 100 µM (inactive),> 100 µM (inactive),> 100 µM (inactive),> 100 µM (inactive),> 100 µM (inactive)
COc1ccc(C2C(C#N)=C(S)N(C3OC(CO)C(O)C(O)C3O)C(C)=C2C(C)=O)cc1 (stereo unspecified),62.1 µM (inactive),> 100 µM (inactive),> 100 µM (inactive),> 100 µM (inactive),,> 100 µM (inactive),> 100 µM (inactive),> 100 µM (inactive),> 100,> 100 µM (inactive),> 100 µM (inactive),> 100 µM (inactive),> 100 µM (inactive),> 100 µM (inactive),> 100 µM (inactive),72.3 µM (inactive),> 100 µM (inactive),> 100 µM (inactive),> 100 µM (inactive),56.9 µM (inactive)
COc1ccccc1NCC(=O)Nn1c(C)nc2ccc(S(=O)(=O)Nc3ccccc3OC)cc2c1=O,> 100 µM (inactive),> 100 µM (inactive),> 100 µM (inactive),> 100 µM (inactive),,> 100 µM (inactive),> 100 µM (inactive),> 100 µM (inactive),56.1,> 100 µM (inactive),> 100 µM (inactive),> 100 µM (inactive),97.7 µM (inactive),53.5 µM (inactive),> 100 µM (inactive),29.7 µM (inactive),26.7 µM (inactive),> 100 µM (inactive),> 100 µM (inactive),36.5 µM (inactive)
O=C1NCc2ccccc2S(=O)(=O)n2cccc21,> 100 µM (inactive),> 100 µM (inactive),> 100 µM (inactive),> 100 µM (inactive),,> 100 µM (inactive),> 100 µM (inactive),> 100 µM (inactive),> 100,> 100 µM (inactive),> 100 µM (inactive),> 100 µM (inactive),> 100 µM (inactive),> 100 µM (inactive),> 100 µM (inactive),> 100 µM (inactive),> 100 µM (inactive),> 100 µM (inactive),> 100 µM (inactive),6.28 µM (inactive)
